pIC50: −log10 of the molar value. Entries after “also recorded” stand apart in the source; their conditions may differ.
How the values were obtained:
[1] = test system: MDR cell lines where MDR1 (Pgp1) is highly expressed; experiment: Reversal of chemoresistance across panel of MDR cell lines with various anti-cancer agents
Method: Screening conditions in drug resistant cells were optimized in 96-well plates for optimal growth conditions, small molecular compound and drug concentration and assay times prior to screening. On day 1, drug resistant cells were seeded at 2×10^4 cells/well on 96-well plates and labeled with plates A, B, and incubated for 24 hr at 37° C. On day 2, plate A was treated with a test compound at 1 μM to each well without paclitaxel; Plate B was treated with both a test compound and paclitaxe at specifically prescribed concentrations. From day 4 to day 6, fresh medium was replaced with necessity as described above and evaluated for cytotoxicity under the microscope. On Day 6, the number of viable cells was evaluated for cytotoxicity in any wells under the microscope manually and final results were determined via […]96™ AQ One Solution Cell Cytotoxicity Assay (Promega, Madison, Wis.) by a SPECTRAIVIAX.™ Microplate Spectrophotometer (Molecular Devices, Sunnyvale, Calif.).
The general format was designed for screening the small molecular compound library and identifying novel drug resistant inhibitor. These include evaluation of each small molecular compound through a well studied multidrug resistant cell line SKOV-3TR. The experiments were conducted in two control plates (A and B) and one experimental plate (C) to permit plate-to-plate comparisons (FIG. 1). The control plates (plate A and B) were used to evaluate cytotoxicity of paclitaxel and small molecular compound itself, and to exclude compound that were lethal to the cells in the absence of chemotherapy drug. […] because the goal of this study was to identify small molecular compound that can reverse drug resistance and not to determine cell toxicity. […] Small molecular compound that were associated with cell survival in plate A and plate B and death in plate C were identified as “hits” and selected for further study.
Furthermore, other cell lines with non-Pgp1 mediated MDR mechanisms were tested (H69/AR cells that express MRP1, but not Pgp1, and MCF-7 MX cells that express BCRP, but not Pgp1) to evaluate the specificity of NSC23925.

[2] = target: purified recombinant human Pgp1 membrane protein (Homo sapiens, UniProt P08183)
Method: Luminescence was read on a BMG LABTECH Polarstar Optima Luminometer. The decrease in luminescence of untreated samples compared to samples plus Na3VO4(ARLUbasal) represents basal Pgp1 ATPase activity. […] E: Effect of NSC23925 on expression of Pgp1 in paclitaxel resistant cells. The paclitaxel resistant cell line SKOV-3TR was treated with different concentration of NSC23925 for 48 h. Equal amounts (20 μg protein) of total cell lysates were used for each sample. Pgp1 expression was determined by Western blot as described in the Examples section below.
The Pgp-Glo™ Assay Systems (Promega) provide the necessary reagents for performing luminescent P-glycoprotein (Pgp)-ATPase assays. The ATPase assay provides a rapid, […], compound-independent measure of the concentration-dependence of any interaction of a drug with Ppg1. […] Luminescence was read on a BMG LABTECH Polarstar Optima Luminometer. The decrease in luminescence of NT samples compared to samples plus Na3VO4 (ΔRLUbasal) represents basal Pgp-ATPase activity.
Pgp-ATPase assay is a valuable screening tool for determining if a drug interacts with Pgp.

[3] = test system: Pgp1 expression in SKOV-3TR cells; experiment: Pgp1 expression by Western blot; assay type: cell-based, human; conditions: NSC23925 up to 10 μM for 48 h
[4] = test system: Pgp1 substrate retention in SKOV-3TR cells; experiment: Fluorescence microscopy of Pgp substrate accumulation; assay type: cell-based, human
Method: FIG. 8 depicts the increase in Pgp1 substrate accumulation in SKOV-3TR by NSC23925. Images of SKOV-3TR cells incubated with various fluorescent substrates of Pgp1 in the presence (bottom panel) and absence (top panel) of NSC23925. For visualization of effects of NSC23925 on the intracellular retention of rhodamine 123, mitoxantrone, Dioc2, doxorobucin, and calcein AM, 10,000 resistant cells were seeded on to Lab-Tek 8-well chamber slides on the day prior to the assay. SKOV-3TR cells were then incubated with either 1 μM rhodamine 123, 10 μM mitoxantrone, 0.1 μM Dioc2, 10 μM doxorubicin or 0.25 μM calcein AM either alone or in the presence of NSC23925 in RPMI 1640 media for one hour at 37° C. Image were acquired a Nikon Eclipse Ti-U fluorescence microscope (Nikon Corp.) equipped with a SPOT RT digital camera (Diagnostic Instruments, Inc., Sterling Heights, Mich.).
For visualization of the effects of NSC23925 on the intracellular retention of calcein AM, doxorubicin, and mitoxantrone, 10,000 resistant cells were seeded on to Lab-Tek 8-well chamber slides on the day prior to the assay. […] Images were acquired by Nikon Eclipse Ti-U fluorescence microscope (Nikon Corp.) equipped with a SPOT RT digital camera (Diagnostic Instruments, Inc., Sterling Heights, Mich.).

[5] = test system: SKOV-3 and SKOV-3TR cells; experiment: Cytotoxicity of NSC23925 alone (MTT assay), SKOV-3/SKOV-3TR; assay type: cell-based, human
Method: Drug cytotoxicity was determined by MTT assay. […] Cells were treated with the NSC23925 in RPMI1640 complete media at the indicated concentrations. The relative sensitivity of each line to NSC23925 was determined by MTT assay. A: Nonspecific toxicity of NSC23925 on SKOV3 vs SKOV-3TR. B: Nonspecific toxicity of NSC23925 on OVCAR8 vs OVCAR8TR. Drug cytotoxicity was assessed in vitro using the MTT assay. SKOV-3 and SKOV-3TR cells were used herein. Briefly, 2×10^3 cells per well were plated in 96-well plates in culture medium (RPMI 1640 supplemented with 10% fetal bovine serum and penicillin/streptomycin) containing increasing concentrations of drug. […] The resulting formazan product was dissolved with acid-isopropanol and the absorbance at a wavelength of 490 nm (A490) was read on a SPECTRAmax® Microplate Spectrophotometer (Molecular Devices, Sunnyvale, Calif.). The absorbance values were normalized by assigning the value of the control line in the medium without drug to 1.0 and the value of the no cell control to 0. Experiments were performed in triplicate.

[6] = test system: H69/AR cells (express MRP1, not Pgp1); experiment: Reversal of drug resistance in non-Pgp1 MDR cells expressing MRP1; assay type: cell-based, human
[7] = value = anti-cancer drug used in conjunction

Chain of purified recombinant human Pgp1 membrane protein (P08183 whole entry): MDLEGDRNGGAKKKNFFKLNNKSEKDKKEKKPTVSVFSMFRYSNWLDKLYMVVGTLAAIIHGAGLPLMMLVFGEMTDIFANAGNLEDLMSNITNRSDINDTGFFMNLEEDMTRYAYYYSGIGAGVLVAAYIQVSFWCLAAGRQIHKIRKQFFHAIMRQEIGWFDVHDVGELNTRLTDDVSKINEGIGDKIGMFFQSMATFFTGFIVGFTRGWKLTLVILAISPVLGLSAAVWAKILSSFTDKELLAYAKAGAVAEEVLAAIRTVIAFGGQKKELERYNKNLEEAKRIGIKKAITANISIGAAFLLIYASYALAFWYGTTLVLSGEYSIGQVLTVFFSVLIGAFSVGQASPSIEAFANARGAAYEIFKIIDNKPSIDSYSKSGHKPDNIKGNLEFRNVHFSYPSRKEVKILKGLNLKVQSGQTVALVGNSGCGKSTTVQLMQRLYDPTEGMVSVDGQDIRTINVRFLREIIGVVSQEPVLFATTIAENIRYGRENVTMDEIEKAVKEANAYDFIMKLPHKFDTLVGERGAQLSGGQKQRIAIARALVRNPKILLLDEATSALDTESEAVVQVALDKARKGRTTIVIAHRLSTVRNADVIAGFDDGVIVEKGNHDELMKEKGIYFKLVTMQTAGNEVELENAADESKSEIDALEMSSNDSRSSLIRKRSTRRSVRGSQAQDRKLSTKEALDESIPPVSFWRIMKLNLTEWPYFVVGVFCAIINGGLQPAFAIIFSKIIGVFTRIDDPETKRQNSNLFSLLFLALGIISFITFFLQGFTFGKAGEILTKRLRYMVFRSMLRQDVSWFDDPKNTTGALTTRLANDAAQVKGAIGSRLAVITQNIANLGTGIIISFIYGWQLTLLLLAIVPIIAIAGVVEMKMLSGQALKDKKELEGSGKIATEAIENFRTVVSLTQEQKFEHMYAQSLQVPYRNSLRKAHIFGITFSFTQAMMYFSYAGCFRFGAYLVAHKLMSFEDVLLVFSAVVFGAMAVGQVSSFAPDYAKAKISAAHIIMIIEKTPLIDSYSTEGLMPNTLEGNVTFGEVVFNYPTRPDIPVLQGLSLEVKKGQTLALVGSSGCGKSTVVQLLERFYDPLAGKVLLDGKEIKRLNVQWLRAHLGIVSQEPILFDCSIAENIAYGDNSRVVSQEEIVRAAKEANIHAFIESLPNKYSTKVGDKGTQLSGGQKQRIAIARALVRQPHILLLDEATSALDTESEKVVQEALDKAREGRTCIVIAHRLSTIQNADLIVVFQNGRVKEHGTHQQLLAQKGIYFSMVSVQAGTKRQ

SMILES: COc1ccc(-c2cc(C(O)C3CCCCN3)c3ccccc3n2)cc1 (stereo not drawn) [NSC23925, (2-(4-methoxyphenyl)quinolin-4-yl)(piperidin-2-yl)methanol]
- Reversal of chemoresistance in tumor types where MDR1 is highly expressed ([1]; SKOV-3TR, OVCAR8TR, MCF-7TR, MESSA/Dx5, KHOS R2, U-2OSDR): reverses chemoresistance
- Effect on cytotoxicity of cisplatin and methotrexate ([1]; agents unaffected by MDR1 mechanisms): did not alter the cytotoxicity
- Reverse Drug Resistance by NSC23925: Decreased drug resistance (to the anti-cancer drug named in the cell) [1, 7]: Vincristine; also recorded: Gemcitabine; also recorded: ET-743; also recorded: PM00104; also recorded: Paclitaxel; also recorded: Docetaxel; also recorded: Doxorubicin; also recorded: Daunorubicin
- Reverse Drug Resistance by NSC23925: No effect (on the anti-cancer drug named in the cell) [1, 7]: Cisplatin; also recorded: Carboplatin; also recorded: Topotecan; also recorded: Methotrexate
- Reversal of chemoresistance in conjunction with anti-cancer agents ([1]; with paclitaxel, docetaxel, doxorubicin, daunorubicin, gemcitabine, vincristine, ET-743 or PM00104): significant reversal of chemoresistance
- Stimulation of Pgp-ATPase activity [2]: > 30%
- Expression level of Pgp1 [3]: not affected
- Fluorescence of SKOV-3TR cells incubated with fluorescent Pgp substrates ([4]; 1 μM NSC23925, one hour at 37° C.): highly fluorescent
- Efflux of Pgp1 substrates Rhodamine 123, mitoxantrone, dioc 2 and doxorubicin from SKOV-3TR ([4]; fluorescence): inhibited the efflux
- Cytotoxic effect of NSC23925 alone in parental SKOV-3 ([5]; <5-10 μM NSC23925 alone, cells lack Pgp1): no cytotoxic effect
- pIC50 ([5]; Homo sapiens, SKOV-3/SKOV-3TR, single agent, read-out: IC50 for NSC23925 (proliferation)): 5.10
- Effect of verapamil on the cytotoxic effect of NSC23925 ([5]; Pgp1-overexpressing SKOV-3TR cells, 72 hours, MTT): did not influence the cytotoxic effect
- Doses at which NSC23925 by itself is noncytotoxic ([5]; both sensitive and resistant cell lines): up to 10 μM
- Pgp1 transport substrate status ([5]; concluded from matched cell line IC50s and verapamil co-treatment): not a substrate of Pgp1
- Reversal of drug resistance in H69/AR cells [6]: unable to reverse drug resistance
